Source: patent publication US9248124B2, “Use of inhibitors of IκB kinase for the treatment of cancer” (Millennium Pharmaceuticals, Inc., priority 2001, dated 2016)

Test system: U266 cells
Assay: Cell cycle profile by PI staining and flow cytometry, U266
Type: cell-based, human
Details: 10 μM for 24, 36 and 48 h, FIG. 4
Procedure: For cell cycle analysis, MM cells cultured for 24-48 h in compound 1 (10 μM), Dex (1 μM); IL-6 (20 ng/mL), or control media were harvested, washed with phosphate-buffered saline (PBS), fixed with 70% ethanol, and treated with 10 μg/mL of RNase (Roche Diagnostics Corp., Indianapolis, Ind.). Cells were then stained with propidium iodine (PI, Sigma) (5 μg/mL). For detection of ICAM-1 expression, MM cells cultured in TNFα (5 ng/mL) in the presence or absence of compound 1 (10 μM) were harvested, washed with PBS, and stained with mouse IgG isotype control or FITC-conjugated mouse anti-human CD54 Ab. Both cell cycle profile and ICAM-1 expression were determined using an Epics (Coulter Immunology, Hialeah, Fla.) flow cytometer, as in prior studies (Hideshima et al., Oncogene 20:4519 (2001)).

O=C(Nc1cc(Cl)cc2c1[nH]c1cnccc12)c1cccnc1 [compound 1, N-(6-chloro-9H-β-carbolin-8-yl)-nicotinamide]
cell cycle profile: induced G1 growth arrest, but not apoptosis
